Results reported in ChEMBL document CHEMBL5104111, “Boron-Containing heterocycles as promising pharmacological agents” (Bioorg Med Chem, 2022).
Converted amounts (≈) assume the structure as drawn.

Each compound was assayed on Mycobacterium tuberculosis variant bovis (assay: Antibacterial activity against Mycobacterium bovis BCG assessed as bacterial growth inhibition).
Type: functional
For O=C(NCCOCCOCCNC(=O)c1ccc2c(c1)B(O)OC2)c1ccc2c(c1)COB2O, the MIC was 0.39 µM (≈ 0.183 µg/mL). With O=C(NCCCOCCOCCOCCCNC(=O)c1ccc2c(c1)B(O)OC2)c1ccc2c(c1)COB2O the MIC was 0.39 µM (≈ 0.211 µg/mL). O=C(NCCNC(=O)c1ccc2c(c1)B(O)OC2)c1ccc2c(c1)B(O)OC2 showed an MIC of 0.78 µM (≈ 0.296 µg/mL).
